This is an account of results in patent publication US20250221996A1, “HETEROCYCLIC COMPOUNDS, COMPOSITIONS THEREOF, AND METHODS OF TREATMENT THEREWITH” (BeiGene, Ltd., priority 2022, published 2025).

For the assay, the system named is pERK1/2(THR202/TYR204) level in AsPC-1 cells. The assay can be described thus: pERK assay (HTRF) in AsPC-1 cell line. Type of assay: cell-based. The conditions noted are these: 2 h compound treatment. In short, it runs like this: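 AsPC-1 (KRAS G12D) cells, 30000/well, seeded overnight, then treated 2 h with a 10-point series at 0 to 10 μM final. Lysate pERK1/2 (Thr202/Tyr204) detected by HTRF after overnight antibody incubation at room temperature; IC50 from percent inhibition versus log concentration.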
(In TR-FRET formats the signal depends on donor and acceptor labels being close together.)

By IC50 is commonly meant the concentration that inhibits the measured activity by half. Take `CC1(COc2nc(N3CC4CCC(C3)N4)c3cc(C(F)(F)F)c(-c4ccc(F)c5sc(N)c(C#N)c45)c(F)c3n2)CC2(COC2)C1` [Example 55, 4-(4-(3,8-diazabicyclo[3.2.1]octan-3-yl)-8-fluoro-2-((6-methyl-2-oxaspiro[3.3]heptan-6-yl)methoxy)-6-(trifluoromethyl)quinazolin-7-yl)-2-amino-7-fluorobenzo[b]thiophene-3-carbonitrile]: under “Homo sapiens, ASPC1, 2 h”, inhibition was half-maximal at 0.332 µM (IC50).

Take `N#Cc1c(N)sc2c(F)ccc(-c3c(C(F)(F)F)cc4c(N5CC6CCC(C5)N6)nc(OCC56COC(C(F)F)(C5)C6)nc4c3F)c12` (single isomer, unassigned) [Example 1-Isomer 1, 4-(4-(3,8-diazabicyclo[3.2.1]octan-3-yl)-2-((1-(difluoromethyl)-2-oxabicyclo[2.1.1]hexan-4-yl)methoxy)-8-fluoro-6-(trifluoromethyl)quinazolin-7-yl)-2-amino-7-fluorobenzo[b]thiophene-3-carbonitrile]: half-maximal inhibition (IC50) was put at 2.57 µM. This lies in the single-digit micromolar range.

In turn, `COC1(COc2nc(N3CC4CCC(C3)N4)c3cc(C(F)(F)F)c(-c4ccc(F)c5sc(N)c(C#N)c45)c(F)c3n2)CCOC1` (single isomer, unassigned) [Example 3-Isomer 4, 4-(4-(3,8-diazabicyclo[3.2.1]octan-3-yl)-8-fluoro-2-((3-methoxytetra hydrofuran-3-yl)methoxy)-6-(trifluoromethyl)quinazolin-7-yl)-2-amino-7-fluoro benzo[b]thiophene-3-carbonitrile] returned an IC50 of 0.273 µM.

On to `N#CCC1(COc2nc(N3CC4CCC(C3)N4)c3cc(C(F)(F)F)c(-c4ccc(F)c5sc(N)c(C#N)c45)c(F)c3n2)CCOCC1` [Example 35, 4-(4-(3,8-diazabicyclo[3.2.1]octan-3-yl)-2-((4-(cyanomethyl)tetra hydro-2H-pyran-4-yl)methoxy)-8-fluoro-6-(trifluoromethyl)quinazolin-7-yl)-2-amino-7-fluorobenzo[b]thiophene-3-carbonitrile], for which, where the note is “Homo sapiens, ASPC1, 2 h”, the IC50 was determined as 0.275 µM.

As to `N#Cc1c(N)sc2c(F)ccc(-c3c(C(F)(F)F)cc4c(N5CC6CCC(C5)N6)nc(OCC5(O)CCOCC5)nc4c3F)c12` [Example 19, 4-(4-(3,8-diazabicyclo[3.2.1]octan-3-yl)-8-fluoro-2-((4-hydroxytetrahydro-2H-pyran-4-yl)methoxy)-6-(trifluoromethyl)quinazolin-7-yl)-2-amino-7-fluorobenzo[b]thiophene-3-carbonitrile], the IC50 (Homo sapiens, ASPC1, 2 h) was found to be 0.326 µM. This IC50 and that of the compound before are within 1.5-fold of each other.

Regarding `COC1(COc2nc(N3CC4CCC(C3)N4)c3cc(C(F)(F)F)c(-c4ccc(F)c5sc(N)c(C#N)c45)c(F)c3n2)CN(C(C)=O)C1` [Example 39, 4-(2-((1-acetyl-3-methoxyazetidin-3-yl)methoxy)-4-(3,8-diazabicyclo [3.2.1]octan-3-yl)-8-fluoro-6-(trifluoromethyl)quinazolin-7-yl)-2-amino-7-fluorobenzo[b]thiophene-3-carbonitrile], the IC50 (Homo sapiens, ASPC1, 2 h) was 0.495 µM. Against the preceding compound, the IC50 is about 1.5-fold higher.

For the setting “Homo sapiens, ASPC1, 2 h”, `CC1(CC#N)CN(c2nc(N3CC4CCC(C3)N4)c3cc(C(F)(F)F)c(-c4ccc(F)c5sc(N)c(C#N)c45)c(F)c3n2)C1` [Example 17] gave an IC50 of 0.561 µM.

As for `N#Cc1c(N)sc2c(F)ccc(-c3c(C(F)(F)F)cc4c(N5CC6CCC(C5)N6)nc(OCC56COC(C#N)(C5)C6)nc4c3F)c12` [Example 30, 4-(((7-(2-amino-3-cyano-7-fluorobenzo[b]thiophen-4-yl)-4-(3,8-diazabicyclo[3.2.1]octan-3-yl)-8-fluoro-6-(trifluoromethyl)quinazolin-2-yl)oxy)methyl)-2-oxabicyclo[2.1.1]hexane-1-carbonitrile], half-maximal inhibition (Homo sapiens, ASPC1, 2 h) (IC50) required 0.071 µM.

As to `N#CCC1(COc2nc(N3CC4CCC(C3)N4)c3cc(C(F)(F)F)c(-c4ccc(F)c5sc(N)c(C#N)c45)c(F)c3n2)COC1` [Example 51, 4-(4-(3,8-diazabicyclo[3.2.1]octan-3-yl)-2-((3-(cyanomethyl)oxetan-3-yl)methoxy)-8-fluoro-6-(trifluoromethyl)quinazolin-7-yl)-2-amino-7-fluoro benzo[b]thiophene-3-carbonitrile], the concentration for half-maximal inhibition (IC50) (Homo sapiens, ASPC1, 2 h) is 0.142 µM.

For the compound `N#Cc1c(N)sc2c(F)ccc(-c3c(C(F)(F)F)cc4c(N5CC6CCC(C5)N6)nc(OCC5(C#N)CCOCC5)nc4c3F)c12` (single isomer, unassigned) [Example 22-Isomer 2, 4-(((7-(2-amino-3-cyano-7-fluorobenzo[b]thiophen-4-yl)-4-(3,8-diazabicyclo[3.2.1]octan-3-yl)-8-fluoro-6-(trifluoromethyl)quinazolin-2-yl)oxy)methyl)tetrahydro-2H-pyran-4-carbonitrile], the IC50 came out at 0.072 µM.

Compound `COC1(COc2nc(N3CC4CCC(C3)N4)c3cc(C(F)(F)F)c(-c4ccc(F)c5sc(N)c(C#N)c45)c(F)c3n2)CC1` [Example 45, 4-(4-(3,8-diazabicyclo[3.2.1]octan-3-yl)-8-fluoro-2-((1-methoxycyclopropyl)methoxy)-6-(trifluoromethyl)quinazolin-7-yl)-2-amino-7-fluorobenzo[b] thiophene-3-carbonitrile] returned an IC50 (Homo sapiens, ASPC1, 2 h) of 0.115 µM.

In the case of `N#Cc1c(N)sc2c(F)ccc(-c3c(C(F)(F)F)cc4c(N5CC6CCC(C5)N6)nc(OCC5(C#N)CCOCC5)nc4c3F)c12` (single isomer, unassigned) [Example 22-Isomer 1, 4-(((7-(2-amino-3-cyano-7-fluorobenzo[b]thiophen-4-yl)-4-(3,8-diazabicyclo[3.2.1]octan-3-yl)-8-fluoro-6-(trifluoromethyl)quinazolin-2-yl)oxy)methyl)tetrahydro-2H-pyran-4-carbonitrile], the IC50 was above 10 µM.

The compound `CC1(COc2nc(N3CC4CCC(C3)N4)c3cc(C(F)(F)F)c(-c4ccc(F)c5sc(N)c(C#N)c45)c(F)c3n2)COC1` [Example 18, 4-(4 (3,8-diazabicyclo[3.2.1]octan-3-yl)-8-fluoro-2-((3-methyloxetan-3-yl)methoxy)-6-(trifluoromethyl)quinazolin-7-yl)-2-amino-7-fluorobenzo [b]thiophene-3-carbonitrile] yielded an IC50 (Homo sapiens, ASPC1, 2 h) of 0.146 µM.

Turning to `CC(=O)N1CC(F)(COc2nc(N3CC4CCC(C3)N4)c3cc(C(F)(F)F)c(-c4ccc(F)c5sc(N)c(C#N)c45)c(F)c3n2)C1` [Example 36, 4-(2-((1-acetyl-3-fluoroazetidin-3-yl)methoxy)-4-(−3,8-diazabicyclo[3.2.1]octan-3-yl)-8-fluoro-6-(trifluoromethyl)quinazolin-7-yl)-2-amino-7-fluorobenzo[b]thiophene-3-carbonitrile], the IC50 (Homo sapiens, ASPC1, 2 h) was found to be 0.25 µM.

On to `N#Cc1c(N)sc2c(F)ccc(-c3c(Cl)cc4c(N5CC6CCC(C5)N6)nc(OCC56COC(C5)C6)nc4c3F)c12` (single isomer, unassigned) [Example 2-Isomer 2, 4-(2-((2-oxabicyclo[2.1.1]hexan-4-yl)methoxy)-4-(3,8-diazabicyclo[3.2.1]octan-3-yl)-6-chloro-8-fluoroquinazolin-7-yl)-2-amino-7-fluorobenzo[b]thio phene-3-carbonitrile], for which the IC50 is above 10 µM.

Turning to `N#Cc1c(N)sc2c(F)ccc(-c3c(C(F)(F)F)cc4c(N5CC6CCC(C5)N6)nc(OCC5(C(F)(F)F)CCOC5)nc4c3F)c12` (centres unmarked) [Example 26, 4-(4-(3,8-diazabicyclo[3.2.1]octan-3-yl)-8-fluoro-6-(trifluoromethyl)-2-((3-(trifluoromethyl)tetrahydrofuran-3-yl)methoxy)quinazolin-7-yl)-2-amino-7-fluorobenzo[b]thiophene-3-carbonitrile], half-maximal inhibition (Homo sapiens, ASPC1, 2 h) (IC50) was put at 1.46 µM. This counts as single-digit micromolar.

Compound `N#Cc1c(N)sc2c(F)ccc(-c3c(C(F)(F)F)cc4c(N5CC6CCC(C5)N6)nc(OCC5(C#N)CCOC5)nc4c3F)c12` (single isomer, unassigned) [Example 10-Isomer 4, 3-(((7-(2-amino-3-cyano-7-fluorobenzo[b]thiophen-4-yl)-4-(3,8-diazabicyclo[3.2.1]octan-3-yl)-8-fluoro-6-(trifluoromethyl)quinazolin-2-yl)oxy)methyl)tetrahydrofuran-3-carbonitrile] showed an IC50 of 0.056 µM.

Under “Homo sapiens, ASPC1, 2 h”, `CCC1(COc2nc(N3CC4CCC(C3)N4)c3cc(C(F)(F)F)c(-c4ccc(F)c5sc(N)c(C#N)c45)c(F)c3n2)COC1` [Example 32, 4-(4-(3,8-diazabicyclo[3.2.1]octan-3-yl)-2-((3-ethyloxetan-3-yl)methoxy)-8-fluoro-6-(trifluoromethyl)quinazolin-7-yl)-2-amino-7-fluorobenzo[b]thiophen-3-carbonitrile] came in with an IC50 of 0.11 µM.

`COC1(COc2nc(N3CC4CCC(C3)N4)c3cc(C(F)(F)F)c(-c4ccc(F)c5sc(N)c(C#N)c45)c(F)c3n2)CCOC1` (single isomer, unassigned) [Example 3-Isomer 3, 4-(4-(3,8-diazabicyclo[3.2.1]octan-3-yl)-8-fluoro-2-((3-methoxytetra hydrofuran-3-yl)methoxy)-6-(trifluoromethyl)quinazolin-7-yl)-2-amino-7-fluoro benzo[b]thiophene-3-carbonitrile] displayed an IC50 of 0.096 µM.

With `COC1(COc2nc(N3CC4CCC(C3)N4)c3cc(C(F)(F)F)c(-c4ccc(F)c5sc(N)c(C#N)c45)c(F)c3n2)CCOC1` (centres unmarked) [Example 3-Mixture 1, 4-(4-(3,8-diazabicyclo[3.2.1]octan-3-yl)-8-fluoro-2-((3-methoxytetra hydrofuran-3-yl)methoxy)-6-(trifluoromethyl)quinazolin-7-yl)-2-amino-7-fluoro benzo[b]thiophene-3-carbonitrile], the IC50 (Homo sapiens, ASPC1, 2 h) amounted to 1.73 µM.
